Experimental data published in patent US20060281680A1, “Methods and compositions for modulating vascular integrity” (GENENTECH, INC., priority 2005, published 2006).
Residue numbers refer to the chain shown, from its start. Names may count otherwise.

Assays:
Assay type in all cases: cell-based, human
DSCR1 [1] = assay: DSCR1 expression analysis by real-time RT-PCR (TaqMan) in HUVECs; details: for DSCR1 mRNA levels: HUVECs, after 5.5 hours; for DSCR1 expression levels (real-time RT-PCR): serum-starved HUVECs, over 36 hours
Description: (§1) Cells and cell assays. Primary human endothelial cells were purchased from Clonetics (Santa Rosa, Calif.) and cultured according to the manufacturer's instructions. For gene calling experiments, human umbilical vein endothelial cells (HUVECs) were purchased from Clonetics (BioWhittaker, Walkersville, Md.) and maintained in endothelial growth medium (EBM-2) complemented with 5% fetal calf serum (FCS) following the manufacturer's instructions. Cells (1×107) were split at a cell density of 19 000 cell/cm2 and triplicate experiments for each condition were run in parallel. Twenty-four hours after plating the cells, cell were washed 3 times with phosphate-buffered saline (PBS) and media (Clonetics) containing either 0.1% bovine serum albumin (BSA) or 0.1% BSA plus VEGF (30 ng/mL) or 5% FCS. RNA isolation and reverse transcription-PCR (RT-PCR) analysis was performed as described.^21 For cell culture experiments, the following conditions were used: human (h) VEGF, 30 ng/mL; hTNF-α, 10 ng/mL; PMA, 200 ng/mL (Calbiochem, LaJolla, Calif.); CsA, 1 μM (Calbiochem); IO 5 μM (Sigma, St Louis, Mo.); thapsigargin, 50 nM (Sigma). In one instance inhibiting (si) RNAs were generated by Dharmacon (Lafayette, Colo.) based on the full-length cDNAs of the respective gene and using the “Smart-pool” service (Dharmacon, Lafayette, Colo.). For adenoviral transduction survival experiments, human umbilical vein endothelial cells (HUVECs) were maintained in endothelial growth medium (EBM-2) complemented with 5% FCS following the manufacturer's instructions. 3×10^5 cells were split per well of a 6 well plate (Primaria, BD Biosciences, Bedford, Mass.) and duplicate experiments for each condition were run in parallel. Cells were infected with adenovirus (MOI=100) encoding for a gD peptide (Ad-Control), DSCR1 (Ad-DSCR1) or an antisense construct with the coding sequence inverted (Ad-DSCR1-AS) for 2 h in serum free media containing 10 mM […] and 10 nM MgCl2 on a vertical shaker at room temperature. Thereafter, 5 times the volume of regular growth medium containing 5% FCS was added and cells were kept for 1 day in a CO2 incubator. Thereafter, cells were washed three times with PBS and basal media (Clonetics, Santa Rosa, Calif.) containing 0.1 % BSA was added and PMA/IO, H202, and ZVAD as indicated. 24 hours after serum starvation and dosing, cell were counted on a Coulter brand style cell counter. For cell culture experiments, the following conditions were used: PMA: 200 ng/ml (Calbiochem, LaJolla, Calif.), Ionomycine: 5 μM (Sigma, St. Louis, Mo.), a 3% H202 solution was diluted 1:300 in basal media, 0.1% BSA to result in a 0.01% H202 solution, ZVAD 5 μM.

DSCR1 [2] = assay: Western blot of DSCR1 protein in whole cell extracts of HUVECs; details: 6 hours of stimulation
Description: (§2) Cells cultured in 10-cm dishes were washed twice in Tris (tris(hydroxymethyl)aminomethane)-buffered saline, and 0.6 mL RIPA buffer (10 mM PBS, 1% Nonidet P-40, 0.5% sodium deoxycholate, 0.1% sodium dodecyl sulfate [SDS], […] phenylmethylsulfonyl fluoride, 30 μg/mL aprotinin, 1 mM sodium orthovanadate), and protease inhibitors (Roche Pharmaceuticals, Gaithersburg, Md.) were added. Mouse monoclonal antibody (mAb) directed against human NFATc 1, c2, and c3 was purchased from Santa Cruz Biotechnology (Santa Cruz, Calif.). Affinity-purified goat polyclonal antibody against human E-selectin, vascular cell adhesion molecule-1 (VCAM-1), intercellular adhesion molecule-1 (ICAM-1), and Cox-2 was from BD Pharmingen. Total endothelial cell extract, polyacrylamide gel electrophoresis (PAGE), blotting, and immunodetection were performed according to the Santa Cruz Biotechnology protocol. A total of […] whole-cell extract was loaded on each lane of a 4% to 16% polyacrylamide gel. The enhanced chemiluminescence (ECL) reaction kit was purchased from Amersham Pharmacia Biotech (Piscataway, N.J.), and horseradish peroxidase streptavidin from Vector Laboratories (Burlingame, Calif.) was used. For NFATc1 experiments, equal amounts of cell extract were loaded to visualize NFATc1 (mAb 7A6; 1:500; Santa Cruz Biotechnology) and the loading control α-tubulin (mAb from ICN, Santa Ana, Calif.; 1:5000). For Cox-2 and TF immunoblot analysis equal amounts of cell lysate were loaded on a 6% to 12% gradient SDS-PAGE. Cox-2 was analyzed with an anti-Cox2 mAb (RDI, 1:500) and TF with an anti-hTF mAb (clone 7G11) was generated at Genentech, and used at a 1:500 dilution. Before loading the samples on the gel, the protein amounts were quantified and adjusted accordingly. As loading control, an anti-γ-adaptin mAb was used (1:1000) on a 4% to 20% polyacrylamide gel.
DSCR1 was PCR amplified with primers DSCR1-EcoRI-Pro 5′, adding an extra proline and DSCR1-Stop-XhoI 3′, by using DSCR1 cDNA as a template and cloned into pGEX-KG. GST-DSCR1 was expressed and purified essentially as described previously.^23 Polyclonal rabbit anti-GST-DSCR1 was prepared by immunization with recombinant GST-DSCR1. Filtered crude serum was used for Western blots (1:400).

Cox-2, E-selectin, TF = assay: Real-time RT-PCR of inflammatory marker / VEGF target genes in HUVECs; details: activated endothelial cells, 4 hours of incubation
Description: as §1

NFAT = NFAT luciferase reporter gene assay in endothelial cells
Description: For HUVEC and human microvascular endothelial cell (HMVECs) transient transfections, cells (7.5×104) were plated per well of a 6-well dish in 3 mL growth medium (Primaria; BD Biosciences, Bedford, Mass.). The amounts of plasmid DNA used in the lipofection mixture were calculated for transfection of the total of 3 wells. Then, 1.25 μg expression vector, 3.75 μg luciferase reporter, and 2.0 μg SV-Renilla reference reporters were mixed and 14 μL F1 lipofectin reagent (Targeting Systems, Santee, Calif.) was added. Then, 4.5 mL high-glucose Dulbecco modified Eagle medium (DMEM) was added to the mixture. Transient transfection was conducted as recommended by the manufacturer. For reporter gene expression experiments, cells were lysed by using the Dual Luciferase Reporter Kit (Promega, San Luis Obispo, Calif.) in 300 μL of 1×passive lysis buffer following the recommendations of the manufacturer.
For transient transfection experiments including siRNA, HUVECs were plated in 6-well plates as described for transient transfection experiments. For 6 replicas, 600 pmol siRNA (Dharmacon, Lafayette, Colo.), 7.5 μg luciferase, and 4 μg Renilla reporter construct were mixed in 6 mL high-glucose DMEM. For FACS and immunohistochemical (IHC) experiments, 11.5 μg enhanced green fluorescent protein (EGFP) plasmid was added instead of the luciferase plasmid. […]

DSCR1 [3] = assay: Western blot of DSCR1 after siRNA transfection of HUVECs
Description: as §2, with “The enhanced chemiluminescence (ECL) reaction kit was purchased from Amersham Pharmacia Biotech (Piscataway, N.J.), and horseradish peroxidase streptavidin from Vector Laboratories (Burlingame, Calif.) was used. For NFATc1 experiments, equal amounts of cell extract were loaded to visualize NFATc1 (mAb 7A6; 1:500; Santa Cruz Biotechnology) and the loading control α-tubulin (mAb from ICN, Santa Ana, Calif.; 1:5000). For Cox-2 and TF immunoblot analysis equal amounts of cell lysate were loaded on a 6% to 12% gradient SDS-PAGE.” left out, “As loading control, an anti-γ-adaptin mAb was used (1:1000) on a 4% to 20% polyacrylamide gel.” left out

[4] = tested on: TF, VCAM-1, E-selectin, ICAM-1; assay: FACS analysis of inflammatory markers on GFP+ siRNA-transfected HUVECs
Description: For transient transfection experiments including siRNA, HUVECs were plated in 6-well plates as described for transient transfection experiments. For 6 replicas, 600 pmol siRNA (Dharmacon, Lafayette, Colo.), 7.5 μg luciferase, and 4 μg Renilla reporter construct were mixed in 6 mL high-glucose DMEM. For FACS and immunohistochemical (IHC) experiments, 11.5 μg enhanced green fluorescent protein (EGFP) plasmid was added instead of the luciferase plasmid. Prior to incubation at 37° C. for 25 to 30 minutes, 30 μL Targefect solution A and 60 μL Targefect solution B (Targeting Systems) were added to the mixture; 1 mL of this solution was used for lipofection as described. Cells were washed twice with PBS prior to addition of serum-free medium and dosing for the indicated amount of time.

DSCR1 [5] = assay: DSCR1 expression by real-time RT-PCR in HPAECs, HMVECs and HUAECs; details: HMVECs, HUAECs
Description: Cells and cell assays. Primary human endothelial cells were purchased from Clonetics (Santa Rosa, Calif.) and cultured according to the manufacturer's instructions. For gene calling experiments, human umbilical vein endothelial cells (HUVECs) were purchased from Clonetics (BioWhittaker, Walkersville, Md.) and maintained in endothelial growth medium (EBM-2) complemented with 5% fetal calf serum (FCS) following the manufacturer's instructions. Cells (1×107) were split at a cell density of 19 000 cell/cm2 and triplicate experiments for each condition were run in parallel. Twenty-four hours after plating the cells, cell were washed 3 times with phosphate-buffered saline (PBS) and media (Clonetics) containing either 0.1% bovine serum albumin (BSA) or 0.1% BSA plus VEGF (30 ng/mL) or 5% FCS. RNA isolation and reverse transcription-PCR (RT-PCR) analysis was performed as described.^21 For cell culture experiments, the following conditions were used: human (h) VEGF, 30 ng/mL; hTNF-α, 10 ng/mL; PMA, 200 ng/mL (Calbiochem, LaJolla, Calif.); CsA, 1 μM (Calbiochem); IO 5 μM (Sigma, St Louis, Mo.); thapsigargin, 50 nM (Sigma). […] 24 hours after serum starvation and dosing, cell were counted on a Coulter brand style cell counter. […]

[6] = GFP+ activated endothelial cells

For `C/C=C(/C)C(=O)O[C@H]1C(C)=C2[C@H]([C@@H]1OC(=O)CCCCCCC)[C@@](C)(OC(C)=O)C[C@H](OC(=O)CCC)[C@@]1(O)[C@H]2OC(=O)[C@@]1(C)O` [thapsigargin, reference compound], the “DSCR1 mRNA levels” value (DSCR1 [1]) was “significantly increased”, the DSCR1 protein levels (DSCR1 [2]) was “induction of DSCR1” and the “induction of COX2, E-selectin and TF mRNA” value (Cox-2, E-selectin, TF) was “significant induction”.

TNF-α was tested, and the “DSCR1 mRNA levels” value (DSCR1 [1]) was “significantly increased” and the DSCR1 protein levels (DSCR1 [2]) was “unable to detect increased DSCR1 protein levels”.

For “b-FGF: basic fibroblast growth factor, R&D Systems”, the “DSCR1 expression levels (real-time RT-PCR)” value (“DSCR1 expression levels” for short) (DSCR1 [1]) was “did not alter DSCR1 levels significantly” and the DSCR1 protein levels (DSCR1 [2]) was “no significant increase”.

For ionomycine [reference compound], the “DSCR1 mRNA levels” value (DSCR1 [1]) was “significantly increased”.

With “siDSCR1: siRNA to DSCR1 (NM_004414): pool of four in VEGF studies, AACGUAUGACAAGGACAUCAC in PMA/IO studies (one strand only stated, further chemistry not given here)” the “increase in NFAT activity relative to siControl” value (NFAT; HUVECs in presence of IO/PMA) was 2 fold, the “increase in NFAT activity relative to siControl” value (NFAT; HUVECs in presence of VEGF) was 3 fold and the “DSCR1 protein expression from cotransfected PRKN-DSCR1-FLAG” value (DSCR1 [3]; anti-Flag Western blot) was “complete absence”. The “reduction in endogenous DSCR1 levels” value (DSCR1 [3]; rabbit polyclonal antiserum Western blot) was 50% to 70%, the ICAM-1 expression [4, 6] was “not significantly affected” and the “expression levels of TF, E-selectin and VCAM-1” value [4, 6] was “increase”. For the same molecule, the “magnitude of induction of inflammatory gene expression in VEGF-stimulated versus PMA/IO-stimulated cells” value ([4]; GFP+ endothelial cells) was “clearly below”.

B1: VEGFR2-sel: KDR-selective VEGF mutant: VEGF D63S/G65M/L66R (protein)
chain: APMAEGGGQNHHEVVKFMDVYQRSYCHPIETLVDIFQEYPDEIEYIFKPSCVPLMRCGGCCNSEMRECVPTEESNITMQIMRIKPHQGQHIGEMSFLQHNKCECRPKKDRARQENPCGPCSERRKHLFVQDPQTCKCSCKNTDSRCKARQLELNERTCRCDKPRR
B1 was tested, and the “DSCR1 expression levels” value (DSCR1 [1]) was “equally potent to VEGF” and the “DSCR1 expression (real-time RT-PCR)” value (DSCR1 [5]) was “increased levels of DSCR1 expression”.

B2: VEGFR1-sel: Flt-selective VEGF mutant I43A/I46A/Q79A/I83 (protein)
chain: B1 chain with I43A, I46A, S63D, M65G, R66L, Q79A
In the case of B2, the “DSCR1 expression levels” value (DSCR1 [1]) is reported as “failed to induce alterations in DSCR1 expression”.

B3: PlGF: VEGFR-1 selective ligand (protein, UniProt P49763 19-221, looked up)
Placenta growth factor: LPAVPPQQWALSAGNGSSEVEVVPFQEVWGRSYCRALERLVDVVSEYPSEVEHMFSPSCVSLLRCTGCCGDENLHCVPVETANVTMQLLKIRSGDRPSYVELTFSQHVRCECRHSPGRQSPDMPGDFRADAPSFLPPRRSLPMLFRMEWGCALTGSQSAVWPSSPVPEEIPRMHPGRNGKKQQRKPLREKMKPERCGDAVPRR
B3 was tested, and the “DSCR1 expression levels” value (DSCR1 [1]) was “failed to induce alterations in DSCR1 expression”.
